Test results published in US6362212B1, “Oxime derivative and bactericide containing the same as active ingredient” (Shionogi & Company, Ltd., priority 1994, dated 2002).

Assays:
[1] = system: Erysiphe graminis f. sp. tritici; assay: Controlling effect on Erysiphe graminis f. sp. tritici by foliage application (pot experiment); type: in vivo; details: foliage spray on wheat (cv. NORIN No. 61) seedlings, infected area after 10 days in greenhouse at 20° C.; for pest or weed control at 500 ppm: Blumeria graminis, foliar, 240 h, read-out: Controlling effect on ErYsiphe graminis f. sp. tritici by foliage application at 500 ppm (percent control)
How it was run: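 Wheat seedlings (cv. NORIN No. 61, 2-3 weeks old) sprayed with compound in DMF diluted in water with spreader, then inoculated with conidia 24 hours later. Kept in greenhouse at 20 °C for 10 days; percent control calculated from infected leaf area.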

Puccinia coronata = assay: Controlling effect on Puccinia coronata by foliage application (pot experiment); type: in vivo; details: foliage spray on oat (cv. PC-38) seedlings, infected area after 1 day moist chamber and 8 days greenhouse at 20° C.
How it was run: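 Oat seedlings (cv. PC-38, 2–3 weeks old) were sprayed with compound in DMF diluted with spreader-containing water, then inoculated 24 h later with P. coronata spores diluted in talc. Plants were held 1 day in a moist chamber at 20° C, then 8 days in a greenhouse at 20° C; percent control came from infected leaf area.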

Pyricularia oryzae = type: in vivo; details: foliage spray on rice seedlings (cv. […]), number of lesions six days after the inoculation
Sphaerotheca fuliginea = assay: Controlling effect on Sphaerotheca fuliginea by foliage application (pot experiment); type: in vivo; details: foliage spray on cucumber (cv. TSUKUBASHIROIBO) first leaves, infected area after 10 days in greenhouse at 20° C.; for pest or weed control at 500 ppm: Podosphaera fuliginea, in Cucumis sativus, foliar, 240 h, read-out: Controlling effect on Sphaerotheca fuliginea by foliage application at 500 ppm (percent control)
How it was run: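 First leaves of cucumber seedlings, 2-3 weeks old, were sprayed with compound (DMF solution diluted in water with spreader). They were inoculated 24 h later with a Sphaerotheca fuliginea conidia spray and kept 10 days at 20° C in a greenhouse. Percent control was calculated from infected leaf area.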

Botrytis cinerea = assay: Controlling effect on Botrytis cinerea by foliage application (pot experiment); type: in vivo; details: foliage spray on cucumber (cv. TSUKUBASHIROIBO) first leaves, mycelial disks, lesion diameter after 3 days in moist chamber at 20° C.
Method: The following Test Examples illustrate the effects of the fungicide of the present invention. (I. Controlling effects on various plant diseases by foliage application (pot experiment)) A test compound was dissolved in a small amount of N,N-dimethylformamide, and the solution was diluted to a given concentration with distilled water containing a spreader. Thus, a liquid sample to be tested was prepared. The liquid sample was sprayed to test plants, and 24 hours thereafter, pathogens were inoculated by the method described below. […] The seeds of cucumber ([…]) were sown in plastic cups (each 9 cm in diameter), followed by cultivation for 2 to 3 weeks. The test compound in the form of a solution or suspension was sprayed to the surface of their first leaves, and mycelial disks (4 mm φ) of Botrytis cinerea cultured on the potato sucrose agar medium were put on the leaf surfaces to inoculate. the cucumber seedlings with the pathogen. The plants were kept in a moist chamber at 20° C. for 3 days. The diameter of the lesions on the leaves was measured and the percent control was calculated.

[2] = system: Pseudoperonospora cubensis; assay: Controlling effect on Pseudoperonospora cubensis by foliage application (pot experiment); type: in vivo; details: foliage spray on cucumber (var. TSUKUBASHIROIBO) first leaves, lesion area after 10 days in moist chamber at 20° C.
How it was run: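 Cucumber plants grown 2–3 weeks were sprayed on first leaves with compound (DMF solution diluted in water with spreader); 24 h later, Pseudoperonospora cubensis zoosporangia suspension dropped on leaves. Plants held in moist chamber at 20° C for 10 days; lesion area observed and percent control calculated.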

| SMILES | melting point [°C] | pest or weed control at 500 ppm [1] [%] | Controllng effect on Puccinia coronata by foliage application at 500 ppm (percent control) (Puccinia coronata) | Controlling effect on PYricularia orYzae by foliage application at 500 ppm (percent control) (Pyricularia oryzae) | pest or weed control at 500 ppm (Sphaerotheca fuliginea) [%] | Controlling effect on Botrytis cinerea by foliage application at 500 ppm (percent control) (Botrytis cinerea) | Controlling effect on ErYsiphe graminis f. sp. tritici by foliage application at 500 ppm (percent control) [1] [percent control] | Controlling effect on Sphaerotheca fuliginea by foliage application at 500 ppm (percent control) (Sphaerotheca fuliginea) | Controlling effect on Pseudoperonospora cubensis by foliage application at 500 ppm (percent control) [2] [percent control] |
| --- | --- | --- | --- | --- | --- | --- | --- | --- | --- |
| CON=C(c1ccon1)c1ccccc1COc1cc(C)ccc1C (single isomer, unassigned) [Compound No. 336, 2-(2,5-dimethylphenoxymethyl)phenyl isoxazol-3-yl ketone O-methyloxime] | 104 to 108 | 97 | 100 | 90 | 100 |  |  |  |  |
| CON=C(c1ccccc1COc1cccc(Cl)c1)n1ccnc1 [Compound No. 6, 1-[2-(3-chlorophenoxymethyl)-α-methoxyiminobenzyl]imidazole] | 96.5 to 97.5 | 100 | 100 | 90 |  | 100 |  |  |  |
| CON=C(c1cc(C)no1)c1ccccc1COc1ncc(C(F)(F)F)cc1Cl [Compound No. 690, 2-(3-chloro-5-trifluoromethyl-2-pyridyloxymethyl)phenyl 3-methylisoxazol-5-yl ketone O-methyloxime] | 77 to 79 |  |  |  |  |  |  |  |  |
| CON=C(c1nnco1)c1ccccc1COc1cc(C)ccc1C [Compound No. 736, 2-(2,5-dimethylphenoxymethyl)phenyl 1,3,4-oxadiazol-2-yl ketone O-methyloxime] | 134 to 135 | 100 | 100 |  | 100 |  |  |  |  |
| CON=C(c1ncon1)c1ccccc1COc1ccc(Cl)cc1 [Compound No. 807, 2-(4-chlorophenoxymethyl)phenyl 1,2,4-oxadiazol-3-yl ketone O-methyloxime] | 107 to 108 |  |  |  | 100 |  |  |  |  |
| CON=C(c1ncno1)c1ccccc1COc1ccc(Cl)cc1 [Compound No. 1584, 2-(4-chlorophenoxymethyl)phenyl 1,2,4-oxadiazol-5-yl ketone O-methyloxime] | 96 to 97.5 | 100 | 70 | 70 | 100 |  |  |  |  |
| CON=C(c1nnn(C)n1)c1ccccc1COc1cc(C)ccc1C [Compound No. 2036, 2-(2,5-dimethylphenoxymethyl)phenyl 2-methyl-2H-tetrazol-5-yl ketone O-methyloxime] | 131 to 132 | 90 |  |  | 100 |  |  |  |  |
| CCON=C(c1ccccc1COc1ccccc1)n1cncc1C [compound 215] |  |  | 90 | 70 |  | 97 | 90 | 100 |  |
| CON=C(c1cc(C)no1)c1ccccc1CON=C(C)c1ccc(Cl)c(Cl)c1 [compound 2528, 2-(3,4-dichloro-α-methylbenzylideneaminooxymethyl)phenyl 3-methylisoxazol-5-yl ketone O-methyloxime] | 84 to 85 |  |  |  | 100 |  |  |  | 100 |
